Results published in publication PMC12888920, “MMP-9 regulates disulphide isomerase activity of TGM2 to enhance fusion glycoprotein-mediated syncytium formation of respiratory syncytial virus” (Protein & Cell, 2025).

Test system: RSV A2
Test: Suppression of RSV progeny viral titer (FFA, 72 hpi) in HEp-2 cells
Format: cell-based, Respiratory syncytial virus
Conditions: 0.2 and 1 MOI
Experimental: Figure 2. MMP-9 regulates late-stage RSV infection. (A) Time-of-addition assay design (left). HEp-2 cells were treated with metalloproteinase inhibitors under three regimens: “Full-time” (2 h pretreatment + continuous exposure), “Entry” (viral attachment phase only), or “Post-entry” (≥ 2 hpi). Cells infected with RSV A2 (MOI = 1) were analyzed for cytopathic effect inhibition at 72 hpi versus DMSO controls. mean ± SD, n = 3. (B) No inhibition of RSV F/G/SH pseudovirus entry by doxycycline hyclate or JNJ0966 (5 µmol/L). mean ± SD, n = 3. (C) Temporal sensitivity analysis (left). Viral RNA levels (22 hpi) in HEp-2 cells treated with 5 µmol/L inhibitors at defined intervals: pre-infection (−2–0 h), entry (0–2 h), or post-entry (2–16 h) phases (right). mean ± SD, n = 3. (D) Multicycle replication kinetics. […] (F) Dose-dependent suppression of RSV progeny (MOI = 0.2/1) by inhibitors (72 hpi), quantified by FFA. mean ± SD, n = 3. […]
To evaluate the effects of the compounds on RSV assembly and release, we treated HEp-2 cells with the inhibitors at 10 hpi (the onset of virion assembly) or 16 hpi (the onset of virion release) following RSV infection ([Malhi et al., 2021]). Supernatants were collected at 22 hpi for viral titer quantification. […] Furthermore, at 72 hpi, viral titers were quantified following infection with varying doses of RSV (0.2 and 1 MOI).

| Compound | inhibition of RSV replication (viral titers) |
| --- | --- |
| COc1ccccc1Nc1nc(-c2sc(NC(C)=O)nc2C)cs1 [JNJ0966] | dose-dependent inhibition |
| Doxycycline hyclate | dose-dependent inhibition |
